Data on one substance can be found in patent US10449175B2, “Rinse-off chemical mousse containing benzoyl peroxide” (GALDERMA RESEARCH & DEVELOPMENT, priority 2014, dated 2019).

The data set is described as follows: Stability over time of foaming surfactants in formulation intermediate B with high sodium bicarbonate. The settings on record: incorporated in formulation intermediate B, high concentration of sodium bicarbonate. In kind it is physicochemical. On the procedure: The applicant company has known how to select a foaming surfactant which is stable over time in the presence of a high concentration of sodium bicarbonate. The following surfactants were tested in the mixture: Sodium C14-C16 Olefin Sulfonate sold by Clariant under the name Hostapur® OSB or else Hostapur® OS Liq but also Nansa® LSS 495-H sold by Huntsman, Rodacal LSS 80 RPB from Rhodia, BIO-Terge® AS-90 beads from Stepan, Sodium Cocoyl Glycinate sold by Clariant under the name Hostapon® SG, Sodium Cocoyl Isethionate sold by Clariant under the name Hostapon® SCI85 G, Sodium Lauroyl Methyl Isethionate sold by Innospec under the name Iselux® LG, Decyl Glucoside sold by Cognis under the name Plantacare® 2000 Up, Zinc Coceth Sulfate sold by Zschimmer & Schwarz under the name Zetesol® Zn, Glyceryl Monolaurate sold by Rossow under the name POEM® DL 100, and Disodium PEG-5 Laurylcitrate Sulfosuccinate sold by Evonik under the name Rewopol SB C55®.

Take Sodium C14-16 Olefin Sulfonate: the “retention of foaming and organoleptic properties (color, odor)” value was “retained its foaming properties and its organoleptic properties”.
